Experiments:
Assay in all cases: relative viability (nuclei count vs DMSO), 5 days (fraction); higher = more cells survive
[1] = compound: CS(=O)(=O)N1CCN(Cc2cc3nc(-c4cccc5[nH]ncc45)nc(N4CCOCC4)c3s2)CC1 [Pictilisib] + COc1cccc2cc(-c3nc([C@H]4CC[C@H](C(=O)O)CC4)n4ncnc(N)c34)[nH]c12 [OSI-027] (partner 0.5 µM)
Method in brief: (§1)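 For relative viability, nuclei counts in treated wells were divided by those in vehicle wells. Lung cancer cell lines had been pin-tool dosed in 1536-well plates the day after seeding and cultured for 5 days, then fixed and stained in one step (final 0.05% Triton X-100, 1% formaldehyde, 1 ug/ml Hoechst) and imaged at 4×. Doses were one drug alone or a fixed anchor-drug dose plus five library-drug doses (not always all listed) in √10 steps, and values are duplicate-plate medians.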

[2] = compound: NC1(c2ccc(-c3nc4ccn5c(=O)[nH]nc5c4cc3-c3ccccc3)cc2)CCC1 [MK-2206] + N=C(N)NC(=N)NCCc1ccccc1 [Phenformin] (partner 250 µM)
Method in brief: as §1

[3] = compound: CS(=O)(=O)N1CCN(Cc2cc3nc(-c4cccc5[nH]ncc45)nc(N4CCOCC4)c3s2)CC1 [Pictilisib] + Nc1ncn([C@H]2C[C@H](O)[C@@H](CO)O2)c(=O)n1 [Decitabine] (partner 2 µM)
Method in brief: as §1

[4] = compound: CS(=O)(=O)N1CCN(Cc2cc3nc(-c4cccc5[nH]ncc45)nc(N4CCOCC4)c3s2)CC1 [Pictilisib] + Cc1nc(Nc2ncc(C(=O)Nc3c(C)cccc3Cl)s2)cc(N2CCN(CCO)CC2)n1 [Dasatinib] (partner 0.075 µM)
Method in brief: as §1

[5] = compound: NC1(c2ccc(-c3nc4ccn5c(=O)[nH]nc5c4cc3-c3ccccc3)cc2)CCC1 [MK-2206] + CC(=O)Nc1cccc(-n2c(=O)n(C3CC3)c(=O)c3c(Nc4ccc(I)cc4F)n(C)c(=O)c(C)c32)c1 [Trametinib] (partner 0.02 µM)
Method in brief: as §1

Row | Cell Line | relative viability ([1]; first compound 0.02 µM) | relative viability ([1]; first compound 0.06325 µM) | relative viability ([1]; first compound 0.6325 µM) | relative viability ([1]; first compound 2 µM) | relative viability ([2]; first compound 0.01 µM) | relative viability ([2]; first compound 0.03162 µM) | relative viability ([2]; first compound 0.3162 µM) | relative viability ([2]; first compound 1 µM) | relative viability ([3]; first compound 0.02 µM) | relative viability ([3]; first compound 0.06325 µM) | relative viability ([3]; first compound 0.6325 µM) | relative viability ([3]; first compound 2 µM) | relative viability ([4]; first compound 0.02 µM) | relative viability ([4]; first compound 0.06325 µM) | relative viability ([4]; first compound 0.6325 µM) | relative viability ([4]; first compound 2 µM) | relative viability ([5]; first compound 0.01 µM) | relative viability ([5]; first compound 0.03162 µM) | relative viability ([5]; first compound 0.3162 µM) | relative viability ([5]; first compound 1 µM)
1 | NCI-H1975 | 0.867 | 0.574 | 0.234 | 0.212 | 0.428 | 0.402 | 0.312 | 0.326 | 0.385 | 0.377 | 0.329 | 0.257 | 0.368 | 0.242 | 0.105 | 0.144 | 0.305 | 0.352 | 0.261 | 0.371
2 | NCI-H2126 | 0.706 | 0.75 | 0.541 | 0.427 | 0.515 | 0.501 | 0.446 | 0.426 | 0.559 | 0.57 | 0.473 | 0.494 | 0.626 | 0.566 | 0.337 | 0.3 | 0.559 | 0.543 | 0.515 | 0.455
3 | 201T | 0.757 | 0.683 | 0.503 | 0.281 | 0.446 | 0.417 | 0.42 | 0.52 | 0.869 | 0.83 | 0.675 | 0.843 | 0.552 | 0.506 | 0.464 | 0.276 | 0.688 | 0.753 | 0.743 | 0.724
4 | HCC-78 | 0.334 | 0.376 | 0.285 | 0.275 | 0.7 |  | 0.753 | 0.524 | 0.604 | 0.607 | 0.6 | 0.402 | 0.379 | 0.359 | 0.222 | 0.189 | 0.746 | 0.832 | 0.786 | 0.907
5 | NCI-H358 | 0.684 | 0.664 | 0.357 | 0.127 | 0.338 | 0.352 | 0.328 | 0.412 | 0.199 | 0.199 | 0.18 | 0.115 | 0.147 | 0.148 | 0.123 | 0.0945 | 0.146 | 0.145 | 0.132 | 0.117
6 | SK-LU-1 | 0.38 | 0.335 | 0.185 | 0.19 | 0.536 | 0.602 | 0.476 | 0.503 | 0.612 | 0.695 | 0.559 | 0.525 | 0.159 | 0.168 | 0.103 | 0.109 | 0.556 | 0.513 | 0.449 | 0.431
7 | H3255 | 0.58 | 0.578 | 0.389 | 0.309 | 0.357 | 0.322 | 0.368 | 0.343 | 0.667 | 0.521 | 0.466 | 0.342 | 0.447 | 0.31 | 0.252 | 0.213 | 0.523 | 0.618 | 0.493 | 0.502
8 | LOU-NH91 | 0.747 | 0.757 | 0.666 | 0.464 | 0.682 | 0.727 | 0.683 | 0.555 | 0.827 | 0.829 | 0.771 | 0.7 | 0.581 | 0.546 | 0.443 | 0.359 | 0.793 | 0.817 | 0.77 | 0.686
9 | NCI-H1666 | 0.877 | 0.858 | 0.636 | 0.477 | 0.586 | 0.595 | 0.568 | 0.563 | 0.659 | 0.719 | 0.702 | 0.574 | 0.805 | 0.876 | 0.568 | 0.523 | 0.925 | 0.79 | 0.807 | 0.892
10 | SK-MES-1 | 0.596 | 0.566 | 0.334 | 0.215 | 0.65 | 0.72 | 0.609 | 0.57 | 0.351 | 0.388 | 0.359 | 0.339 | 0.304 | 0.308 | 0.128 | 0.117 | 0.519 | 0.47 | 0.467 | 0.515
11 | NCI-H2023 | 0.385 | 0.33 | 0.151 | 0.0847 | 0.398 | 0.416 | 0.343 | 0.271 | 0.211 | 0.2 | 0.215 | 0.148 | 0.556 | 0.509 | 0.182 | 0.0932 | 0.514 | 0.532 | 0.38 | 0.376
12 | COR-L 105 | 0.735 | 0.629 | 0.472 | 0.28 | 0.51 | 0.472 | 0.392 | 0.489 | 0.681 | 0.656 | 0.62 | 0.541 | 0.414 | 0.283 | 0.209 | 0.181 | 0.451 | 0.439 | 0.381 | 0.433
13 | NCI-H2342 | 0.541 | 0.605 | 0.551 | 0.417 | 0.657 | 0.594 | 0.542 | 0.417 | 0.736 | 0.672 | 0.688 | 0.445 | 0.263 | 0.305 | 0.289 | 0.267 | 0.909 | 0.8 | 0.664 | 0.682
14 | NCI-H838 | 0.328 | 0.308 | 0.242 | 0.189 | 0.554 | 0.722 | 0.517 | 0.447 | 0.474 | 0.492 | 0.381 | 0.371 | 0.346 | 0.277 | 0.279 | 0.217 | 0.504 | 0.507 | 0.498 | 0.354
15 | SW 1573 | 0.615 | 0.584 | 0.362 | 0.237 | 0.419 | 0.457 | 0.27 | 0.237 | 0.688 | 0.587 | 0.354 | 0.285 | 0.485 | 0.524 | 0.288 | 0.161 | 0.608 | 0.516 | 0.444 | 0.489
